Test results taken from ChEMBL document CHEMBL1124506, “Synthesis and antimicrobial properties of substituted beta-aminoxypropionyl penicillins and cephalosporins” (1989).
≈ marks a conversion by molar mass, not a printed value.

test system: Staphylococcus aureus; assay: Inhibition of gram positive (resistant) bacteria growth.; type: functional

Row | Compound | MIC [µg/mL]
1 | CC1(C)SC2C(NC(=O)CCON=C3c4ccccc4-c4ccccc43)C(=O)N2[C@H]1C(=O)[O-].[K+] (some centres undefined) | 8
2 | CC(=O)OCC1=C(C(=O)[O-])N2C(=O)C(NC(=O)CCO/N=C(\C)c3ccc(Cl)cc3)C2SC1.[K+] (centres undefined) | 4
3 | CC1=C(C(=O)O)N2C(=O)C(NC(=O)CCON=C3CCCCC3)C2SC1 (centres undefined) | 79 (≈ 207 µM)
4 | CC1=C(C(=O)O)N2C(=O)C(NC(=O)CCON=C3CCCC3)C2SC1 (centres undefined) | 79 (≈ 215 µM)
5 | CC(=O)OCC1=C(C(=O)O)N2C(=O)C(NC(=O)CCON=C3CCCCC3)C2SC1 (centres undefined) | 1.9 (≈ 4.32 µM)
6 | CC1=C(C(=O)O)N2C(=O)C(NC(=O)Cc3ccccc3)C2SC1 (centres undefined) | 200 (≈ 602 µM)
7 | CC1(C)SC2C(NC(=O)CCO/N=C/c3ccccc3)C(=O)N2[C@H]1C(=O)[O-].[K+] (some centres undefined) | 50
8 | CC(=O)OCC1=C(C(=O)O)N2C(=O)C(NC(=O)Cc3ccccc3)C2SC1 (centres undefined) | 12.6 (≈ 32.3 µM)
9 | CCCC(CCC)=NOCCC(=O)NC1C(=O)N2C(C(=O)O)=C(C)CSC12 (centres undefined) | 100 (≈ 252 µM)
10 | CC(=O)OCC1=C(C(=O)O)N2C(=O)C(NC(=O)CCON=C(C)C)C2SC1 (centres undefined) | 6.2 (≈ 15.5 µM)
11 | CC1=C(C(=O)O)N2C(=O)C(NC(=O)CCO/N=C(\C)c3ccc(Cl)cc3)C2SC1 (centres undefined) | 63 (≈ 144 µM)
12 | CC(=O)OCC1=C(C(=O)O)N2C(=O)C(NC(=O)CCON=C3c4ccccc4-c4ccccc43)C2SC1 (centres undefined) | 0.25 (≈ 0.479 µM)
13 | CCCC(CCC)=NOCCC(=O)NC1C(=O)N2C(C(=O)O)=C(COC(C)=O)CSC12 (centres undefined) | 10 (≈ 22 µM)
14 | CC(=O)OCC1=C(C(=O)O)N2C(=O)C(NC(=O)CCO/N=C\c3ccccc3)C2SC1 (centres undefined) | 4 (≈ 8.94 µM)
15 | CC1(C)S[C@@H]2[C@H](NC(=O)Cc3ccccc3)C(=O)N2[C@H]1C(=O)O [PENICILLIN G] | 79 (≈ 236 µM)
16 | CC1(C)SC2C(NC(=O)CCON=C3CCCC3)C(=O)N2[C@H]1C(=O)[O-].[K+] (some centres undefined) | 25
17 | CC1(C)SC2C(NC(=O)CCON=C3CCCCC3)C(=O)N2[C@H]1C(=O)[O-].[K+] (some centres undefined) | 25
18 | [3H]C([3H])([3H])N1C(=O)CN=C(c2ccc(Cl)cc2)c2cc(Cl)ccc21 [[3H]-RO-54864] | 7.3 (≈ 22.4 µM)
19 | CC1(C)S[C@@H]2[C@H](NC(=O)[C@H](N)c3ccccc3)C(=O)N2[C@H]1C(=O)O [AMPICILLIN] | 10 (≈ 28.6 µM)
20 | CC1=C(C(=O)O)N2C(=O)C(NC(=O)CCO/N=C\c3ccccc3)C2SC1 (centres undefined) | 79 (≈ 203 µM)
21 | CC1=C(C(=O)O)N2C(=O)[C@@H](NC(=O)[C@H](N)c3ccccc3)[C@H]2SC1 [CEPHALEXIN ANHYDROUS] | 20 (≈ 57.6 µM)

test system: not listed separately; assay: Inhibition of gram negative bacteria growth.; type: functional

Row | Compound | MIC [µg/mL]
22 | CC1(C)SC2C(NC(=O)CCON=C3c4ccccc4-c4ccccc43)C(=O)N2[C@H]1C(=O)[O-].[K+] (some centres undefined) | 131
23 | CC(=O)OCC1=C(C(=O)[O-])N2C(=O)C(NC(=O)CCO/N=C(\C)c3ccc(Cl)cc3)C2SC1.[K+] (centres undefined) | 151
24 | CC1=C(C(=O)O)N2C(=O)C(NC(=O)CCON=C3CCCCC3)C2SC1 (centres undefined) | 131 (≈ 343 µM)
25 | CC1=C(C(=O)O)N2C(=O)C(NC(=O)CCON=C3CCCC3)C2SC1 (centres undefined) | 131 (≈ 357 µM)
26 | CC(=O)OCC1=C(C(=O)O)N2C(=O)C(NC(=O)CCON=C3CCCCC3)C2SC1 (centres undefined) | 174 (≈ 396 µM)
27 | CC1=C(C(=O)O)N2C(=O)C(NC(=O)Cc3ccccc3)C2SC1 (centres undefined) | 123 (≈ 370 µM)
28 | CC1(C)SC2C(NC(=O)CCO/N=C/c3ccccc3)C(=O)N2[C@H]1C(=O)[O-].[K+] (some centres undefined) | 136
29 | CC(=O)OCC1=C(C(=O)O)N2C(=O)C(NC(=O)Cc3ccccc3)C2SC1 (centres undefined) | 29 (≈ 74.3 µM)
30 | CCCC(CCC)=NOCCC(=O)NC1C(=O)N2C(C(=O)O)=C(C)CSC12 (centres undefined) | > 200
31 | CC(=O)OCC1=C(C(=O)O)N2C(=O)C(NC(=O)CCON=C(C)C)C2SC1 (centres undefined) | 174 (≈ 436 µM)
32 | CC1=C(C(=O)O)N2C(=O)C(NC(=O)CCO/N=C(\C)c3ccc(Cl)cc3)C2SC1 (centres undefined) | > 200
33 | CC(=O)OCC1=C(C(=O)O)N2C(=O)C(NC(=O)CCON=C3c4ccccc4-c4ccccc43)C2SC1 (centres undefined) | 44 (≈ 84.4 µM)
34 | CCCC(CCC)=NOCCC(=O)NC1C(=O)N2C(C(=O)O)=C(COC(C)=O)CSC12 (centres undefined) | 93 (≈ 204 µM)
35 | CC(=O)OCC1=C(C(=O)O)N2C(=O)C(NC(=O)CCO/N=C\c3ccccc3)C2SC1 (centres undefined) | 71 (≈ 159 µM)
36 | CC1(C)S[C@@H]2[C@H](NC(=O)Cc3ccccc3)C(=O)N2[C@H]1C(=O)O [PENICILLIN G] | 71 (≈ 212 µM)
37 | CC1(C)SC2C(NC(=O)CCON=C3CCCC3)C(=O)N2[C@H]1C(=O)[O-].[K+] (some centres undefined) | 53
38 | CC1(C)SC2C(NC(=O)CCON=C3CCCCC3)C(=O)N2[C@H]1C(=O)[O-].[K+] (some centres undefined) | 107
39 | [3H]C([3H])([3H])N1C(=O)CN=C(c2ccc(Cl)cc2)c2cc(Cl)ccc21 [[3H]-RO-54864] | 71 (≈ 218 µM)
40 | CC1(C)S[C@@H]2[C@H](NC(=O)[C@H](N)c3ccccc3)C(=O)N2[C@H]1C(=O)O [AMPICILLIN] | 1 (≈ 2.86 µM)
41 | CC1=C(C(=O)O)N2C(=O)C(NC(=O)CCO/N=C\c3ccccc3)C2SC1 (centres undefined) | > 200
42 | CC1=C(C(=O)O)N2C(=O)[C@@H](NC(=O)[C@H](N)c3ccccc3)[C@H]2SC1 [CEPHALEXIN ANHYDROUS] | 2 (≈ 5.76 µM)

test system: not listed separately; assay: Inhibition of gram positive bacteria growth.; type: functional

Row | Compound | MIC [µg/mL]
43 | CC1(C)SC2C(NC(=O)CCON=C3c4ccccc4-c4ccccc43)C(=O)N2[C@H]1C(=O)[O-].[K+] (some centres undefined) | 0.06
44 | CC(=O)OCC1=C(C(=O)[O-])N2C(=O)C(NC(=O)CCO/N=C(\C)c3ccc(Cl)cc3)C2SC1.[K+] (centres undefined) | 0.25
45 | CC1=C(C(=O)O)N2C(=O)C(NC(=O)CCON=C3CCCCC3)C2SC1 (centres undefined) | 7.3 (≈ 19.1 µM)
46 | CC1=C(C(=O)O)N2C(=O)C(NC(=O)CCON=C3CCCC3)C2SC1 (centres undefined) | 9.1 (≈ 24.8 µM)
47 | CC(=O)OCC1=C(C(=O)O)N2C(=O)C(NC(=O)CCON=C3CCCCC3)C2SC1 (centres undefined) | 0.5 (≈ 1.14 µM)
48 | CC1=C(C(=O)O)N2C(=O)C(NC(=O)Cc3ccccc3)C2SC1 (centres undefined) | 6.2 (≈ 18.7 µM)
49 | CC1(C)SC2C(NC(=O)CCO/N=C/c3ccccc3)C(=O)N2[C@H]1C(=O)[O-].[K+] (some centres undefined) | 0.1
50 | CC(=O)OCC1=C(C(=O)O)N2C(=O)C(NC(=O)Cc3ccccc3)C2SC1 (centres undefined) | 1.06 (≈ 2.72 µM)
51 | CCCC(CCC)=NOCCC(=O)NC1C(=O)N2C(C(=O)O)=C(C)CSC12 (centres undefined) | 16.4 (≈ 41.3 µM)
52 | CC(=O)OCC1=C(C(=O)O)N2C(=O)C(NC(=O)CCON=C(C)C)C2SC1 (centres undefined) | 1.7 (≈ 4.26 µM)
53 | CC1=C(C(=O)O)N2C(=O)C(NC(=O)CCO/N=C(\C)c3ccc(Cl)cc3)C2SC1 (centres undefined) | 4.7 (≈ 10.7 µM)
54 | CC(=O)OCC1=C(C(=O)O)N2C(=O)C(NC(=O)CCON=C3c4ccccc4-c4ccccc43)C2SC1 (centres undefined) | 0.02 (≈ 0.0383 µM)
55 | CCCC(CCC)=NOCCC(=O)NC1C(=O)N2C(C(=O)O)=C(COC(C)=O)CSC12 (centres undefined) | 0.73 (≈ 1.6 µM)
56 | CC(=O)OCC1=C(C(=O)O)N2C(=O)C(NC(=O)CCO/N=C\c3ccccc3)C2SC1 (centres undefined) | 0.22 (≈ 0.492 µM)
57 | CC1(C)S[C@@H]2[C@H](NC(=O)Cc3ccccc3)C(=O)N2[C@H]1C(=O)O [PENICILLIN G] | 0.05 (≈ 0.15 µM)
58 | CC1(C)SC2C(NC(=O)CCON=C3CCCC3)C(=O)N2[C@H]1C(=O)[O-].[K+] (some centres undefined) | 0.06
59 | CC1(C)SC2C(NC(=O)CCON=C3CCCCC3)C(=O)N2[C@H]1C(=O)[O-].[K+] (some centres undefined) | 0.2
60 | [3H]C([3H])([3H])N1C(=O)CN=C(c2ccc(Cl)cc2)c2cc(Cl)ccc21 [[3H]-RO-54864] | 0.59 (≈ 1.81 µM)
61 | CC1(C)S[C@@H]2[C@H](NC(=O)[C@H](N)c3ccccc3)C(=O)N2[C@H]1C(=O)O [AMPICILLIN] | 0.04 (≈ 0.114 µM)
62 | CC1=C(C(=O)O)N2C(=O)C(NC(=O)CCO/N=C\c3ccccc3)C2SC1 (centres undefined) | 8.2 (≈ 21.1 µM)
63 | CC1=C(C(=O)O)N2C(=O)[C@@H](NC(=O)[C@H](N)c3ccccc3)[C@H]2SC1 [CEPHALEXIN ANHYDROUS] | 0.4 (≈ 1.15 µM)

test system: not listed separately; assay: Inhibition of gram negative (resistant) growth.; type: functional

Row | Compound | MIC [µg/mL]
64 | CC1(C)SC2C(NC(=O)CCON=C3c4ccccc4-c4ccccc43)C(=O)N2[C@H]1C(=O)[O-].[K+] (some centres undefined) | > 200
65 | CC(=O)OCC1=C(C(=O)[O-])N2C(=O)C(NC(=O)CCO/N=C(\C)c3ccc(Cl)cc3)C2SC1.[K+] (centres undefined) | > 200
66 | CC1=C(C(=O)O)N2C(=O)C(NC(=O)CCON=C3CCCCC3)C2SC1 (centres undefined) | > 200
67 | CC1=C(C(=O)O)N2C(=O)C(NC(=O)CCON=C3CCCC3)C2SC1 (centres undefined) | > 200
68 | CC(=O)OCC1=C(C(=O)O)N2C(=O)C(NC(=O)CCON=C3CCCCC3)C2SC1 (centres undefined) | > 200
69 | CC1=C(C(=O)O)N2C(=O)C(NC(=O)Cc3ccccc3)C2SC1 (centres undefined) | > 200
70 | CC1(C)SC2C(NC(=O)CCO/N=C/c3ccccc3)C(=O)N2[C@H]1C(=O)[O-].[K+] (some centres undefined) | > 200
71 | CC(=O)OCC1=C(C(=O)O)N2C(=O)C(NC(=O)Cc3ccccc3)C2SC1 (centres undefined) | > 200
72 | CCCC(CCC)=NOCCC(=O)NC1C(=O)N2C(C(=O)O)=C(C)CSC12 (centres undefined) | > 200
73 | CC(=O)OCC1=C(C(=O)O)N2C(=O)C(NC(=O)CCON=C(C)C)C2SC1 (centres undefined) | > 200
74 | CC1=C(C(=O)O)N2C(=O)C(NC(=O)CCO/N=C(\C)c3ccc(Cl)cc3)C2SC1 (centres undefined) | > 200
75 | CC(=O)OCC1=C(C(=O)O)N2C(=O)C(NC(=O)CCON=C3c4ccccc4-c4ccccc43)C2SC1 (centres undefined) | > 100
76 | CCCC(CCC)=NOCCC(=O)NC1C(=O)N2C(C(=O)O)=C(COC(C)=O)CSC12 (centres undefined) | > 200
77 | CC(=O)OCC1=C(C(=O)O)N2C(=O)C(NC(=O)CCO/N=C\c3ccccc3)C2SC1 (centres undefined) | > 200
78 | CC1(C)S[C@@H]2[C@H](NC(=O)Cc3ccccc3)C(=O)N2[C@H]1C(=O)O [PENICILLIN G] | > 200
79 | CC1(C)SC2C(NC(=O)CCON=C3CCCC3)C(=O)N2[C@H]1C(=O)[O-].[K+] (some centres undefined) | > 200
80 | CC1(C)SC2C(NC(=O)CCON=C3CCCCC3)C(=O)N2[C@H]1C(=O)[O-].[K+] (some centres undefined) | > 200
81 | [3H]C([3H])([3H])N1C(=O)CN=C(c2ccc(Cl)cc2)c2cc(Cl)ccc21 [[3H]-RO-54864] | > 200
82 | CC1(C)S[C@@H]2[C@H](NC(=O)[C@H](N)c3ccccc3)C(=O)N2[C@H]1C(=O)O [AMPICILLIN] | > 200
83 | CC1=C(C(=O)O)N2C(=O)C(NC(=O)CCO/N=C\c3ccccc3)C2SC1 (centres undefined) | > 200
84 | CC1=C(C(=O)O)N2C(=O)[C@@H](NC(=O)[C@H](N)c3ccccc3)[C@H]2SC1 [CEPHALEXIN ANHYDROUS] | > 100
